For this assay, the system named is NCI-H226. Briefly: 72H TEAD Proliferation Assay (Cell Titer Glo 2.0). Type of assay: cell-based. Particulars: Homo sapiens, NCI-H226, 72 h, CTG 2.0, cell line not given (NCI-H226 responsive, NCI-H28 non-responsive). The procedure: 72H TEAD Proliferation Assay.
The effect of TEAD inhibition on cell proliferation was assayed using Cell Titer Glo (CTG) 2.0 to measure response in mesothelioma cell lines NCI-H226 (ATCC, #CRL-5826) and NCI-H28 (ATCC, #CRL-5820).
The 72H TEAD Proliferation assay utilizes Cell Titer-Glo 2.0 (Promega, #G9243) to measure the proliferation of cells in the presence or absence of compound. Cell Titer-Glo 2.0 determines the amount of viable cells by quantifying ATP (an indication of metabolically active cells). It utilizes the conversion of Luciferin to Oxyluciferin and a luminescent signal with the use of ATP to report the quantity of viable cells in culture. Within cells that are continually growing, ATP is being synthesized to meet their metabolic demands, meanwhile the opposite is true for cells that are dying or slowing down their proliferation and either no longer using ATP or are using less, respectively. The NF2-deficient NCI-H226 has been genetically validated as a cell line that is sensitive to TEAD inhibition. The NF2-wild type NCI-H28 has been genetically validated as a cell line that is not sensitive to TEAD inhibition and grows independently of TEAD activity.
Compounds were screened against the responsive NCI-H226 cell line to assess the compounds' ability to inhibit TEAD and cell growth. Compounds were also screened against the non-responsive NCI-H28 cell line to ascertain whether the inhibition of cell growth was due to inhibition of the target TEAD or whether the inhibition was due to off-target cytotoxicity.
• 1) Assay ready plates (ARPs) were prepared by Echo acoustic liquid handler. […] After CTG addition, plates were placed on shaker at 800 RPM for 15 minutes at room temperature and kept in the dark. Luminescence was measured using EnVision multilabel plate reader with ultra-sensitive detection module. • 9) Data Analysis: First background luminescence (no CTG wells) was subtracted from luminescence reading of all wells, then TO luminescence was subtracted from T72 luminescence. To compare anti-proliferative effect of compounds, GI50 was obtained by fitting dose response curves with nonlinear regression curve fit.
Take `C[C@H](CO)NC(=O)c1ccc2c(OC(F)F)cc(-c3ccc(C(F)(F)F)cc3)nc2c1` [I-330, (R)-4-(difluoromethoxy)-N-(1-hydroxypropan-2-yl)-2-(4-(trifluoromethyl)phenyl)quinoline-7-carboxamide]: the GI50 is at most 1000 nM.
With `O=C(O)c1ccc2c(c1)nc(-c1cnc(C(F)(F)F)cn1)c1cccn12` [I-198, 4-(5-(trifluoromethyl)pyrazin-2-yl)pyrrolo[1,2-a]quinoxaline-7-carboxylic acid] the figure was 1000 to 5000 nM; with `C#Cc1cc(-c2ccc(C(F)(F)F)cc2)nc2cc(C(=O)O)ccc12` [I-402, 4-ethynyl-2-(4-(trifluoromethyl)phenyl)quinoline-7-carboxylic acid], at most 1000 nM; with `O=C(O)c1ccc2c(c1)nc(N1CCOCC1)c1cccn12` [I-7, 4-Morpholinopyrrolo[1,2-a]quinoxaline-7-carboxylic acid], above 10000 nM.
With `Cc1nc(-c2ccc(C(F)(F)F)cc2)nc2cc(C(=O)N[C@H](C)CO)ccc12` [I-436, (R)—N-(1-hydroxypropan-2-yl)-4-methyl-2-(4-(trifluoromethyl)phenyl)quinazoline-7-carboxamide] the figure was at most 1000 nM; with `CC1CCN(c2nc3cc(C(=O)O)ccc3n3cccc23)CC1` [I-16, 4-(4-Methylpiperidin-1-yl)pyrrolo[1,2-a]quinoxaline-7-carboxylic acid], 1000 to 5000 nM.
As to `COCc1cc(-c2ccc(C(F)(F)F)cc2)nc2cc(C(=O)O)ccc12` [I-270, 4-(methoxymethyl)-2-(4-(trifluoromethyl)phenyl)quinoline-7-carboxylic acid], the 50% growth inhibitory concentration (GI50) is at most 1000 nM.
The same measure for `O=C(O)c1ccc2c(c1)nc(N1CCC3(CC1)CC3)c1cccn12` [I-4, 4-(6-Azaspiro[2.5]octan-6-yl)pyrrolo[1,2-a]quinoxaline-7-carboxylic acid]: at most 1000 nM.
With `COc1cc(-c2ccc(C(F)(F)F)cc2)nc2cc(C(=O)N[C@@H](CO)c3ccncc3)ccc12` [I-366, (R)—N-(2-hydroxy-1-(pyridin-4-yl)ethyl)-4-methoxy-2-(4-(trifluoromethyl)phenyl)quinoline-7-carboxamide] the figure was at most 1000 nM; with `O=C(O)c1ccc2c(c1)nc(-c1ccc(C(F)(F)F)cc1C(F)(F)F)c1cccn12` [I-199, 4-(2,4-bis(trifluoromethyl)phenyl)pyrrolo[1,2-a]quinoxaline-7-carboxylic acid], 1000 to 5000 nM; with `O=C(/C=C/CF)NCc1cn2c(F)cnc2c(-c2ccc(C(F)(F)F)cc2)n1` [I-249, (E)-4-Fluoro-N-((3-fluoro-8-(4-(trifluoromethyl)phenyl)imidazo[1,2-a]pyrazin-6-yl)methyl)but-2-enamide], at most 1000 nM.
With `CC[C@H](CO)NC(=O)c1ccc2c(OC)cc(-c3ccc(C(F)(F)F)cc3)nc2c1` [I-326, (R)—N-(1-hydroxybutan-2-yl)-4-methoxy-2-(4-(trifluoromethyl)phenyl)quinoline-7-carboxamide] the figure was at most 1000 nM.
The compound `C=CC(=O)NCc1cn2ccnc2c(-c2ccc(C(C)(C)C)cc2)n1` [I-140, N-((8-(4-(tert-butyl)phenyl)imidazo[1,2-a]pyrazin-6-yl)methyl)acrylamide] came in with a GI50 of at most 1000 nM.
Regarding `O=C(O)c1cc2nc(-c3ccc(C(F)(F)F)cc3)c3ccccc3n2c1` [I-421, 5-(4-(trifluoromethyl)phenyl)pyrrolo[1,2-a]quinazoline-2-carboxylic acid], the 50% growth inhibitory concentration (GI50) fell in the range of 1000 to 5000 nM.
The same measure for `O=C(O)c1ccc2c(c1)nc(C1CCC1)c1cccn12` [I-113, 4-Cyclobutylpyrrolo[1,2-a]quinoxaline-7-carboxylic acid]: above 10000 nM; for `C=CC(=O)NCc1cn2cc(C(F)(F)F)nc2c(-c2ccc(C(F)(F)F)cc2)n1` [I-247, N-((2-(trifluoromethyl)-8-(4-(trifluoromethyl)phenyl)imidazo[1,2-a]pyrazin-6-yl)methyl)acrylamide]: at most 1000 nM; for `Cc1cc2c(-c3ccc(C(F)(F)F)cc3F)nc3cc(C(=O)O)ccc3n2c1` [I-84, 4-(2-Fluoro-4-(trifluoromethyl)phenyl)-2-methylpyrrolo[1,2-a]quinoxaline-7-carboxylic acid]: at most 1000 nM.
As for `CC(C)(C)c1ccc(-c2nc3cc(C(=O)O)ccc3n3cc(OC(F)F)cc23)cc1` [I-274, 4-(4-(tert-butyl)phenyl)-2-(difluoromethoxy)pyrrolo[1,2-a]quinoxaline-7-carboxylic acid], the GI50 is at most 1000 nM.
The compound `C=CC(=O)NC(C)c1cn2ccnc2c(-c2ccc(C(C)(C)C)cc2)n1` (stereo not drawn) [I-142, N-(1-(8-(4-(tert-butyl)phenyl)imidazo[1,2-a]pyrazin-6-yl)ethyl)acrylamide] registered a concentration for 50% growth inhibition (GI50) of at most 1000 nM.
For `CC(C)(C)c1ccc(-c2nc(O)cn3ccnc23)cc1` [I-148, 8-(4-(tert-Butyl)phenyl)imidazo[1,2-a]pyrazin-6-ol], the concentration for 50% growth inhibition (GI50) was above 10000 nM.
`CN(C)c1cc(-c2ccc(C(F)(F)F)cc2)nc2cc(C(=O)O)ccc12` [I-392, 4-(dimethylamino)-2-(4-(trifluoromethyl)phenyl)quinoline-7-carboxylic acid] returned a GI50 of 1000 to 5000 nM.
On to `Cc1cc(-c2ccc(C(F)(F)F)cc2)nc2cc(C(=O)NCCO)ccc12` [I-259, N-(2-hydroxyethyl)-4-methyl-2-(4-(trifluoromethyl)phenyl)quinoline-7-carboxamide], for which the 50% growth inhibitory concentration (GI50) was at most 1000 nM.
With `COc1cc2c(-c3ccc(C(C)(C)C)cc3)nc3cc(C(=O)O)ccc3n2c1` [I-180, 4-(4-(tert-butyl)phenyl)-2-methoxypyrrolo[1,2-a]quinoxaline-7-carboxylic acid] the figure was at most 1000 nM.
Turning to `C=CC(=O)Nc1ccc2c(C)cc(-c3ccc(C(F)(F)F)cc3)nc2c1` [I-85, N-(4-Methyl-2-(4-(trifluoromethyl)phenyl)quinolin-7-yl)acrylamide], the GI50 was at most 1000 nM.
With `CC(C)c1cc(-c2ccc(C(F)(F)F)cc2)nc2cc(C(=O)O)ccc12` [I-425, 4-isopropyl-2-(4-(trifluoromethyl)phenyl)quinoline-7-carboxylic acid] the figure was 1000 to 5000 nM; with `O=C(O)c1ccc2c(c1)nc(N1CCC3(CC1)CC3)c1nccn12` [I-56, 4-(6-Azaspiro[2.5]octan-6-yl)imidazo[1,2-a]quinoxaline-7-carboxylic acid], above 10000 nM; with `Cc1cc(C(=O)O)cc2nc(-c3ccc(C(C)(C)C)cc3)c3cccn3c12` [I-321, 4-(4-(Tert-butyl)phenyl)-9-methylpyrrolo[1,2-a]quinoxaline-7-carboxylic acid], 1000 to 5000 nM.
With `COc1c(C)c(-c2ccc(C(F)(F)F)cc2)nc2cc(C(=O)N[C@H](C)CO)ccc12` [I-431, (R)—N-(1-hydroxypropan-2-yl)-4-methoxy-3-methyl-2-(4-(trifluoromethyl)phenyl)quinoline-7-carboxamide] the figure was 5000 to 10000 nM.
The same measure for `COc1cc(-c2ccc(C(F)(F)F)cc2)nc2cc(C(=O)NCCC(=O)C(F)(F)F)ccc12` [I-362, 4-Methoxy-N-(4,4,4-trifluoro-3-oxobutyl)-2-(4-(trifluoromethyl)phenyl)quinoline-7-carboxamide]: 1000 to 5000 nM.
For `C=CC(=O)Nc1ccc2ncc(-c3ccc(C(C)(C)C)cc3)nc2c1` [I-92, N-(3-(4-(tert-butyl)phenyl)quinoxalin-6-yl)acrylamide], the GI50 is 1000 to 5000 nM.
With `CN(CCC(F)(F)F)c1nc2cc(C(=O)O)ccc2n2cccc12` [I-126, 4-(Methyl(3,3,3-trifluoropropyl)amino)pyrrolo[1,2-a]quinoxaline-7-carboxylic acid] the figure was above 10000 nM.
`C=CC(=O)Nc1ccc2c(c1)nc(-c1ccc(C(F)(F)F)cc1)c1cccn12` [I-120, N-(4-(4-(trifluoromethyl)phenyl)pyrrolo[1,2-a]quinoxalin-7-yl)acrylamide] registered a GI50 of at most 1000 nM.
Regarding `O=C(O)c1ccc2c(c1)nc(N1CCC(c3ccccc3)CC1)c1cccn12` [I-13, 4-(4-Phenylpiperidin-1-yl)pyrrolo[1,2-a]quinoxaline-7-carboxylic acid], the concentration for 50% growth inhibition (GI50) was above 10000 nM.
Regarding `Cc1cc(-c2ccc(C(F)(F)F)cc2)nc2cc(-c3nnn[nH]3)ccc12` [I-254, 4-Methyl-7-(1H-tetrazol-5-yl)-2-(4-(trifluoromethyl)phenyl)quinoline], the GI50 was in the range of 5000 to 10000 nM.
With `CC(F)(F)C1CCN(c2nc3cc(C(=O)O)ccc3n3cccc23)CC1` [I-14, 4-(4-(1,1-Difluoroethyl)piperidin-1-yl)pyrrolo[1,2-a]quinoxaline-7-carboxylic acid] the figure was above 10000 nM.
The same measure for `C#Cc1cc(-c2ccc(C(F)(F)F)cc2)nc2cc(C(=O)N[C@H](CC)CO)ccc12` [I-400, (R)-4-ethynyl-N-(1-hydroxybutan-2-yl)-2-(4-(trifluoromethyl)phenyl)quinoline-7-carboxamide]: at most 1000 nM.

These data come from patent publication US12655150B2 (Cedilla Therapeutics, Inc., priority 2021, dated 2026).
